Experimental data from patent US20140235643A1, “NOVEL QUINOXALINE INHIBITORS OF PI3K” (GILEAD CALISTOGA LLC, priority 2011, published 2014).

Tests used:
[1] = molecular target: T1, PI3Kα (p110α/p85α) (Homo sapiens, UniProt P42336); experiment: PI3K biochemical enzyme assay (Adapta universal kinase assay), p110 alpha/p85 alpha; details: for IC50: Table 1, lower part, read-out: PI3Kα IC50
T1 construct: purchased Invitrogen
Method: (§1) This example describes a method of obtaining in vitro activity data concerning the effect of compounds of on various PI3K isoforms. The effect of compounds on the kinase activity of Class I PI3Ks was measured at Invitrogen by using the Adapta® universal kinase assay. It was a homogenous, fluorescent based immunoassay for the detection of ADP produced by the kinase reaction. This assay can be divided into two phases: a kinase reaction phase, and an ADP detection phase. In the kinase reaction phase, all components required for the kinase reaction were added to the well, and the reaction was allowed to incubate for 60 minutes. After the reaction, a detection solution consisting of a europium labeled anti-ADP antibody, an Alexa Fluor® 647 labeled ADP tracer, and EDTA (to stop the kinase reaction) was added to the assay well. ADP formed by the kinase reaction (in the absence of an inhibitor) displaced the Alexa Fluor® 647 labeled ADP tracer from the antibody, resulting in a decrease in the TR-FRET signal.
(§2) ADP formation was determined by calculating the emission ratio from the assay well. The emission ratio was calculated by dividing the intensity of the tracer (acceptor) emission by the intensity of the Eu (donor) emission at 615 nm as shown in the equation below.
(§3) The Test Compounds were screened in 1% DMSO (final) in the well. All Substrate/Kinase Mixtures were diluted to a 2× working concentration in the appropriate Kinase Buffer as described below for the individual kinase:
The 2× p110 alpha/p85 alpha/PIP2:PS mixture was prepared in 50 mM HEPES pH 7.5, 100 mM NaCl, 0.03% CHAPS, 3 mM mgCl2, 1 mM EGTA. The final 10 μL Kinase Reaction consisted of 0.3-1.5 ng p110 alpha/p85 alpha and 50 μM PIP2:PS in 32.5 mM HEPES pH 7.5, 50 mM NaCl, 0.015% CHAPS, 1.5 mM mgCl2, 0.5 mM EGTA. After the 1 hour Kinase Reaction incubation, 5 μL of Detection Mix was added.
(§4) The Detection mix consisted of EDTA (30 mM), Eu-anti-ADP antibody (30 nM) and ADP tracer. All ATP Solutions were diluted to a 4× working concentration in water and used at the Km apparent concentrations for each individual kinase.

[2] = molecular target: T2, PI3Kβ (p110β/p85α) (Homo sapiens, UniProt P42338); experiment: PI3K biochemical enzyme assay (Adapta universal kinase assay), p110 beta/p85 alpha; details: for IC50: Table 1, lower part, read-out: PI3Kβ IC50; for inhibition at 10 µM: read-out: PI3Kβ % inhib
T2 construct: purchased Invitrogen
Method: as §1, §2, §3
The 2× p 110beta/p85 alpha/PIP2:PS mixture was prepared in 50 mM HEPES pH 7.5, 100 mM NaCl, 0.03% CHAPS, 1 mM EGTA, 3 mM mgCl2, and 2 mM DTT. The final 10 μL Kinase Reaction consisted of 35.4 ng p110 beta/p85 alpha and 50 μM PIP2:PS. After the 1 hour Kinase Reaction incubation, 5 μL of Detection Mix was added.
as §4

[3] = molecular target: T3, PI3Kδ (p110δ/p85α) (Homo sapiens, UniProt O00329); experiment: PI3K biochemical enzyme assay (Adapta universal kinase assay), p110 delta/p85 alpha; details: for IC50: Table 1, lower part, read-out: PI3Kδ IC50
T3 construct: purchased Invitrogen
Method: as §1, §2, §3
The 2× p110 delta/p85 alpha/PIP2:PS mixture was prepared in 50 mM HEPES pH 7.5, 100 mM NaCl, 0.03% CHAPS, 3 mM mgCl2, 1 mM EGTA. The final 10 μL Kinase Reaction consisted of 0.35-2.6 ng p110 delta/p85 alpha and 50 μM PIP2:PS in 32.5 mM HEPES pH 7.5, 50 mM NaCl, 0.015% CHAPS, 1.5 mM mgCl2, 0.5 mM EGTA. After the 1 hour Kinase Reaction incubation, […] of Detection Mix was added.
as §4

[4] = molecular target: T4, PI3Kγ (p110 gamma) (Homo sapiens, UniProt P48736); experiment: PI3K biochemical enzyme assay (Adapta universal kinase assay), p110 gamma; details: for increase in gamma potency compared to analog without amino substituent on the purine ring: Q17 vs Q16, Q15 vs Q14; for IC50: Table 1, lower part, read-out: PI3Kγ IC50; for inhibition at 1 µM / inhibition at 10 µM: read-out: PI3Kγ % inhib
T4 construct: purchased Invitrogen
Method: as §1, §2, §3
The 2× p110 gamma/PIP2:PS mixture was prepared in 50 mM HEPES pH 7.5, 1 mM EGTA, 3 mM mgCl2. The final […] Kinase Reaction consisted of 3.5-26 ng p110 gamma and 50 μM PIP2:PS in 32.5 mM HEPES pH 7.5, 0.5 mM EGTA, 1.5 mM mgCl2. After the 1 hour Kinase Reaction incubation, 5 μL of Detection Mix was added.
as §4

[5] = molecular target: T5, PI3Kα (Mus musculus, UniProt P42337); experiment: PI3Kα-dependent cell-based assay: PDGF-BB mediated AKT phosphorylation in Swiss-3T3 cells; details: PDGF-BB-induced AKT phosphorylation, Swiss-3T3 fibroblasts
T5 construct: endogenous in cells; host or cells: Swiss-3T3 fibroblasts (ATCC)
Method: (§5) PDGF-BB-induced AKT phosphorylation in Swiss-3T3 fibroblasts is mediated by p110α. C5a-induced AKT phosphorylation in RAW-264 murine macrophages is mediated exclusively by p110γ.
PI3Kα-Dependent Cell-Based Assay: PDGF-BB Mediated AKT Phosphorylation in Swiss-3T3 Cells
Swiss-3T3 fibroblasts (American Type Culture Collection) were cultured with DMEM containing 10% fetal bovine serum and the antibiotics penicillin and streptomycin. Cells were seeded on a 96-well Tissue Culture Plate at 25,000 cells/well and allowed to reach at least 90% confluency. The cells were starved for 2 to 12 hr in 0.1% FBS containing medium and then were pretreated with inhibitors or DMSO for 2 hr. The cells were stimulated for 15 min with 10 ng/ml PDGF-BB (Cell Signaling Technology) at 37° C. in 5% CO2. The culture medium was removed and cells were fixed for 20 min at room temperature by addition of 100 μl of 4% cell fixing buffer to each well. AKT phosphorylation and total AKT was detected by ELISA.
(§6) Detection of Phospho-Ser-473 AKT and Total AKT by ELISA
(§7) The fixed cells were washed twice with 150 μl of wash buffer (WB) and quenched by incubating with 100 μl of Quenching Buffer for 20 min at room temperature. Cells were washed once with 150 μl WB and blocked by incubating with 100 μl of Blocking Buffer for 1 hr at room temperature. Cells were incubated with 50 μl of primary antibody diluted in Blocking Buffer, either phospho-Ser-473 AKT specific (1:150 dilution) or total-AKT antibody (1:200 dilution), to each specific well. The negative control wells contained 50 μl of Blocking Buffer. Plates were sealed with plate sealing film and incubated overnight at 4° C. Cells were washed twice with 150 μl WB followed by addition of 50 μl per well of DELFIA secondary antibody (50 ng/well, diluted in DELFIA Assay Buffer). After 2 hr incubation at room temperature, cells were washed 4 times with 150 μl of Europium Wash Solution followed by addition of 100 μl of DELFIA Enhancing Solution to each well. Plates were incubated for 5 min in the dark and fluorescent signal was read using SpectraMax M5™ (Molecular Devices). Total AKT level was determined to verify equal cell number per well. The average background fluorescence values from wells that received vehicle control in the absence of PDGF-BB or C5a were subtracted from all the values of experimental conditions. Fluorescence values corresponding to phosphorylated AKT from wells that received PDGF-BB or C5a were normalized to 100% and compound effect was plotted as % change relative to the vehicle control.

[6] = molecular target: T6, PI3Kγ (Mus musculus, UniProt Q9JHG7); experiment: PI3Kγ-dependent cell-based assay: C5a-mediated AKT phosphorylation in RAW-264 cells; design: species or system murine; details: C5a-induced AKT phosphorylation, RAW-264 macrophages
T6 construct: endogenous in cells; host or cells: RAW-264 macrophage cells (ATCC)
Method: as §5
PI3Kγ-Dependent Cell-Based Assay: C5a-Mediated AKT Phosphorylation in RAW-264 Cells
RAW-264 macrophage cells (American Type Culture Collection) were cultured with Dulbecco's modified Eagle medium (DMEM) containing 10% fetal bovine serum and the antibiotics penicillin and streptomycin. Cells were seeded on a 96-well Tissue Culture Plate at 100,000 to 200,000 cells/well the day before the experiment. Next day, cells were starved for 2 hr in 0.1% FBS containing medium. The cells were pretreated with inhibitors or DMSO for 2 hr and stimulated for 5 min with 75 ng/ml C5a (R&D) at 37° C. in 5% CO2. The culture medium was removed and cells were fixed for 20 min at room temperature by addition of 100 μl of 4% cell fixing buffer to each well. AKT phosphorylation and total AKT was detected by ELISA.
as §6, §7

T2 sequence (P42338 whole entry): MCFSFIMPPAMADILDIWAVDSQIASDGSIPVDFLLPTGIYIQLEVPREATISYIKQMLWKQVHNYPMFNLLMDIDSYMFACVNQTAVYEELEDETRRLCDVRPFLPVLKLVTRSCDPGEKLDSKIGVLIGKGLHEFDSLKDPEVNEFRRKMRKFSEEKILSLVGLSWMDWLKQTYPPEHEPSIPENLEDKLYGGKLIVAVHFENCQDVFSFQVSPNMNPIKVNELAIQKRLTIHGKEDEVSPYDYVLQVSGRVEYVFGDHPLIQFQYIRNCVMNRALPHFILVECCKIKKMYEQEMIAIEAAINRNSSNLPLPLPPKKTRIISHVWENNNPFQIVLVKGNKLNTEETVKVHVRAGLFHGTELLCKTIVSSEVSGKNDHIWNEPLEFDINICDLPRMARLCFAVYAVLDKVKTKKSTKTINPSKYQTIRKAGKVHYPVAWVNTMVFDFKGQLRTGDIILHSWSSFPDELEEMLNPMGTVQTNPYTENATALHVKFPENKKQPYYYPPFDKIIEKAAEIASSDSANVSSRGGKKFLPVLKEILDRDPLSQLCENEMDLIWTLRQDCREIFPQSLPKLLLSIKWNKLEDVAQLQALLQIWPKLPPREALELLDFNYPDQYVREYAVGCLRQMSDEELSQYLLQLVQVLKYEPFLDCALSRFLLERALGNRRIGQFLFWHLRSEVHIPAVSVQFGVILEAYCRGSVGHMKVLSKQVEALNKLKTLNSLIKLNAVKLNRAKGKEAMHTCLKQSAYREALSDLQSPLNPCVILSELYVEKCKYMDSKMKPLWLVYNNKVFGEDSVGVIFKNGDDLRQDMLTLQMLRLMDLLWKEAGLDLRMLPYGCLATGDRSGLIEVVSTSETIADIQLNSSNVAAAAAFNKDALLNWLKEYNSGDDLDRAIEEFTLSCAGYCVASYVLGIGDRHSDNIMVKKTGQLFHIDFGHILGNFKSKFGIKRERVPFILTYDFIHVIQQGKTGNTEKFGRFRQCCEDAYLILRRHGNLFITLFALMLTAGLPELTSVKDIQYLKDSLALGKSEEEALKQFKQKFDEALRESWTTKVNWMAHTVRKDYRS
T2 sequence (P27986 whole entry partner): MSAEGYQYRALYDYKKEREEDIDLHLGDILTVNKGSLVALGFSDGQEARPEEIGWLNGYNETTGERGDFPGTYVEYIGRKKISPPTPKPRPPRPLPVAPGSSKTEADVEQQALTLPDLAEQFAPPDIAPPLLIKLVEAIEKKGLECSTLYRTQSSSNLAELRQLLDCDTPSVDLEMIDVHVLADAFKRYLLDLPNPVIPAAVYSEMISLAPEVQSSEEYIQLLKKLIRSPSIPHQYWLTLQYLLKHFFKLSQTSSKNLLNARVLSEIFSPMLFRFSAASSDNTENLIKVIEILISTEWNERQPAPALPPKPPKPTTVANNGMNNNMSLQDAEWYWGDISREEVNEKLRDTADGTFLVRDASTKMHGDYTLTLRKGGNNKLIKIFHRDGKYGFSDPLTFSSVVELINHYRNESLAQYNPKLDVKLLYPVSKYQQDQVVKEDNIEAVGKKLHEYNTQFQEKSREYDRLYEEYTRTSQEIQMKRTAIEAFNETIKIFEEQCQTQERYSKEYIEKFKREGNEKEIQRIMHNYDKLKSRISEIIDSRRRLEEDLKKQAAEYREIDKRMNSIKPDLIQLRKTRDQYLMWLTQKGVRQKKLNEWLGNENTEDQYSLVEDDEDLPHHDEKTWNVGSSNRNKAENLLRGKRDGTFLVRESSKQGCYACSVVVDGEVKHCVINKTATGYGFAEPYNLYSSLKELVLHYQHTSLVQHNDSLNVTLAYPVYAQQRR
T5 sequence (P42337 whole entry): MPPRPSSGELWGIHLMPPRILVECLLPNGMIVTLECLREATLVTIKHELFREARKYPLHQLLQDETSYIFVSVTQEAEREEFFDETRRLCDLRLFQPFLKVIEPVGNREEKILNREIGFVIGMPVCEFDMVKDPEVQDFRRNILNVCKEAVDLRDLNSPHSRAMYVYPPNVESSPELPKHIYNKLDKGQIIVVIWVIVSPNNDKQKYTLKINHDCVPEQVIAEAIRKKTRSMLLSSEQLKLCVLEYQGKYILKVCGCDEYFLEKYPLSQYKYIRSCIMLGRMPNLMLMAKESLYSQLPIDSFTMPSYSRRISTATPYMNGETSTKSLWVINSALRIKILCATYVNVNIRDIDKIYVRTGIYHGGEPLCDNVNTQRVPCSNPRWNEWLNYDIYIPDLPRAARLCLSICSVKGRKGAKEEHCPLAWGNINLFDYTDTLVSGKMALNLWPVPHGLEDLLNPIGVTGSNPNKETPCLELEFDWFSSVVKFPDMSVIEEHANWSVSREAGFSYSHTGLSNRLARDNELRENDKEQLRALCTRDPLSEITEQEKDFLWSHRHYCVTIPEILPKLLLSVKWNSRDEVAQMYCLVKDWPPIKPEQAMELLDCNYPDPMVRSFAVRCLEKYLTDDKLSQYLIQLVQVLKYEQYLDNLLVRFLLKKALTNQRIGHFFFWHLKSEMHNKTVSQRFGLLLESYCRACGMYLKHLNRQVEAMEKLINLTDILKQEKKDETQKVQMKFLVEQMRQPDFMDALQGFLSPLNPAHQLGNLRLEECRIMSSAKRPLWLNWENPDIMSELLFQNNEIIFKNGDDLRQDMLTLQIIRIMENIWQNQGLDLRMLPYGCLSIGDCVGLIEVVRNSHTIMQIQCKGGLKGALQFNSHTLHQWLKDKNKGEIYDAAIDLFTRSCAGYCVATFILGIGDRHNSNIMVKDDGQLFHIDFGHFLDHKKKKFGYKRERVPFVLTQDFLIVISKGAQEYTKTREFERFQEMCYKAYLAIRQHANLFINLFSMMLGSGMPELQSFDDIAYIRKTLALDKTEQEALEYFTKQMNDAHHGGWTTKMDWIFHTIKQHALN
T5 sequence (P26450 whole entry partner): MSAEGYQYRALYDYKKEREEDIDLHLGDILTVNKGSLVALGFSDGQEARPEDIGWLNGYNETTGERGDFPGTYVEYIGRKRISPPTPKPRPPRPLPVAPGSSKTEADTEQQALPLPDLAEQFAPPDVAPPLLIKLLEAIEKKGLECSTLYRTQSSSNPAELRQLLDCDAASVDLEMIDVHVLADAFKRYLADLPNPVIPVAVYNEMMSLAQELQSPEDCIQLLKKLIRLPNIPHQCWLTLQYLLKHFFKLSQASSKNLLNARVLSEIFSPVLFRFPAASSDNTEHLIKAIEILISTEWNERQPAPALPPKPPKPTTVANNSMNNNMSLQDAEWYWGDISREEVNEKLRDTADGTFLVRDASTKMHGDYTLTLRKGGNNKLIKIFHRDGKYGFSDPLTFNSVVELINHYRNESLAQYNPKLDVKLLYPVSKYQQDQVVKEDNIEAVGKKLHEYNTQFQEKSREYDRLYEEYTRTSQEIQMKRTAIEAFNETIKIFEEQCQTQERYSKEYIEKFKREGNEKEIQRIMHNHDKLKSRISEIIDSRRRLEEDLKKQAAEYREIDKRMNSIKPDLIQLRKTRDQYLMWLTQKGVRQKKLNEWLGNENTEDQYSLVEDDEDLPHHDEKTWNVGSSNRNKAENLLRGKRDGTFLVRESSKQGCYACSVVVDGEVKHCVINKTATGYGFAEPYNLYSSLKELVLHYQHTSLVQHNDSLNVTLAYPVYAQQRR
T1 sequence (P42336 whole entry): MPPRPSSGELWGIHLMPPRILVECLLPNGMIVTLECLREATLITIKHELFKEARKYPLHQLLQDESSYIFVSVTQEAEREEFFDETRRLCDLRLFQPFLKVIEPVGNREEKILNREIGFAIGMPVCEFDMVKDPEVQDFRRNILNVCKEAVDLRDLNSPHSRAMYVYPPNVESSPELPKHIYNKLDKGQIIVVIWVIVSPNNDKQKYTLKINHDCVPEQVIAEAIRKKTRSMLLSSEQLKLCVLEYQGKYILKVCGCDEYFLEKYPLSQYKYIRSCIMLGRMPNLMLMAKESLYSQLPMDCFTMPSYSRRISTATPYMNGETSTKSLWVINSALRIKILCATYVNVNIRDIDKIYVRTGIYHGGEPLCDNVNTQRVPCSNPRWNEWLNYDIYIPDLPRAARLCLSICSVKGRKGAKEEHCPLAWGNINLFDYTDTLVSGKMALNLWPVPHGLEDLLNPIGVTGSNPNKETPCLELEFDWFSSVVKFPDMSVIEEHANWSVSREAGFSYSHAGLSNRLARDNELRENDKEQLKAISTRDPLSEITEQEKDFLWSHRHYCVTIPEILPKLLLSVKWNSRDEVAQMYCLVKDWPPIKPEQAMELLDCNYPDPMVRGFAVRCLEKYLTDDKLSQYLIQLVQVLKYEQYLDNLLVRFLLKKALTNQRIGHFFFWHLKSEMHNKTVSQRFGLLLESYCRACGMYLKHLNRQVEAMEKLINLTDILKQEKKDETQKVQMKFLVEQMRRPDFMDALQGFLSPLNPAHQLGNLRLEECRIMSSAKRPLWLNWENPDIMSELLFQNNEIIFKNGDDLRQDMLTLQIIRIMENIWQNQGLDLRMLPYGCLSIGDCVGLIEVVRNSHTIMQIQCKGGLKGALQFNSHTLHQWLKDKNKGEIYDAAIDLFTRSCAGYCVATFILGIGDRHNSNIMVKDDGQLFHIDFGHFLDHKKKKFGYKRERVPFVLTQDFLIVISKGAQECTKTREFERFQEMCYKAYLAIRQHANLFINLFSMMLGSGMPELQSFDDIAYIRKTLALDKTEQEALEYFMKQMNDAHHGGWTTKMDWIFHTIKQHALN
T1 sequence (P27986 whole entry partner): as the sequence (P27986 whole entry partner) above

Nc1nc(NCc2nc3ccccc3nc2-c2ccccc2)c2nc[nH]c2n1 [Compound Q17]
IC50 [1]: 100 µM | IC50 [2]: 8.5 µM | IC50 [3]: 0.075 µM | increase in gamma potency compared to analog without amino substituent on the purine ring [4]: 30 × | IC50 [4]: 0.692 µM

Cc1cccc2nc(C(C)Nc3ncnc4[nH]cnc34)c(-c3ccc(F)cc3)nc12 (stereo not drawn) [Compound Q7]
inhibition at 1 µM ([1]; 1 μM, read-out: PI3Kα % inhib): 28% | inhibition at 10 µM ([1]; read-out: PI3Kα % inhib): 88% | inhibition at 10 µM [2]: 77% | inhibition at 1 µM ([3]; read-out: PI3Kδ % inhib): 71% | inhibition at 10 µM ([3]; read-out: PI3Kδ % inhib): 100% | inhibition at 1 µM [4]: 61% | inhibition at 10 µM [4]: 95% | EC50 [5]: 15.2 µM | EC50 [6]: 3.59 µM

c1ccc(-c2nc3ccccc3nc2CSc2ncnc3[nH]cnc23)cc1 [Compound Q14]
IC50 [3]: 0.95 µM | IC50 [4]: 17.5 µM

c1ccc(-c2nc3ccccc3nc2CNc2ncnc3[nH]cnc23)cc1 [Compound Q16]
IC50 [1]: 51 µM | IC50 [2]: 14.5 µM | IC50 [3]: 0.19 µM | IC50 [4]: 20.5 µM

CC(Nc1ncnc2[nH]cnc12)c1nc2ccccc2nc1-c1c(F)cccc1F (stereo not drawn) [Compound Q10]
inhibition at 10 µM ([1]; read-out: PI3Kα % inhib): 30% | inhibition at 10 µM [2]: 30% | inhibition at 1 µM ([3]; read-out: PI3Kδ % inhib): 74% | inhibition at 10 µM ([3]; read-out: PI3Kδ % inhib): 99% | inhibition at 1 µM [4]: 12% | inhibition at 10 µM [4]: 82% | EC50 [5]: > 20 µM | EC50 [6]: > 20 µM

Nc1ncnc2c1ncn2Cc1nc2ccccc2nc1-c1ccccc1 [Compound Q13]
IC50 [3]: 1.17 µM | IC50 [4]: 46.5 µM

Nc1nc(SCc2nc3ccccc3nc2-c2ccccc2)c2nc[nH]c2n1 [Compound Q15]
IC50 [3]: 0.25 µM | increase in gamma potency compared to analog without amino substituent on the purine ring [4]: 8 × | IC50 [4]: 2.38 µM

CCC(Nc1ncnc2[nH]cnc12)c1nc2cccc(C)c2nc1-c1ccccc1 (stereo not drawn) [Compound Q8]
inhibition at 10 µM ([1]; read-out: PI3Kα % inhib): 50% | inhibition at 10 µM [2]: 53% | inhibition at 1 µM ([3]; read-out: PI3Kδ % inhib): 58% | inhibition at 10 µM ([3]; read-out: PI3Kδ % inhib): 100% | inhibition at 1 µM [4]: 30% | inhibition at 10 µM [4]: 83% | EC50 [5]: > 20 µM | EC50 [6]: > 20 µM

Cc1cccc2nc(C(C)n3cnc4c(N)ncnc43)c(-c3ccccc3)nc12 (stereo not drawn) [Compound Q6, 9-[1-(5-methyl-3-phenylquinoxalin-2-yl)ethyl]-9H-purin-6-amine]
inhibition at 10 µM ([1]; read-out: PI3Kα % inhib): 32% | inhibition at 10 µM [2]: 61% | inhibition at 0.1 µM ([3]; 0.1 μM, read-out: PI3Kδ % inhib): 63% | inhibition at 1 µM ([3]; read-out: PI3Kδ % inhib): 86% | inhibition at 10 µM ([3]; read-out: PI3Kδ % inhib): 100% | inhibition at 1 µM [4]: 48% | inhibition at 10 µM [4]: 89% | EC50 [5]: > 20 µM | EC50 [6]: > 20 µM

Cc1ccc(-c2nc3ccccc3nc2C(C)Nc2ncnc3[nH]cnc23)cc1 (stereo not drawn) [Compound Q11]
inhibition at 10 µM ([1]; read-out: PI3Kα % inhib): 53% | inhibition at 10 µM [2]: 76% | inhibition at 1 µM ([3]; read-out: PI3Kδ % inhib): 45% | inhibition at 10 µM ([3]; read-out: PI3Kδ % inhib): 99% | inhibition at 10 µM [4]: 79% | EC50 [5]: > 20 µM | EC50 [6]: > 20 µM
